PubChem BioAssay AID248 (DTP/NCI, 2004)
“And” between values parts separate entries of the source, which are not always exact repeats. Equal values may be shown once. Inconclusive results and toxic doses are left out. No stated cut-off is given here; in the data, active means T/C of 150% or more; inactive means T/C below 125%.

System: L1210 leukemia ip in BDF1 mice, survival T/C
Test: NCI In Vivo Anticancer Drug Screen. Data for tumor model L1210 Leukemia (intraperitoneal) in B6D2F1 (BDF1) mice
Conditions: endpoint: mean survival time, higher = longer survival
Method in brief: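 Transplanted-tumor mice were given test agent; controls received vehicle only. Survival readings from the two groups were divided (treated over control).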

[1] = dose: 100.0 mg/kg/injection, schedule: Q01DX009 (ip), vehicle: Klucel (hydroxypropylcellulose) (HPC)
[2] = dose: 200.0 mg/kg/injection, schedule: Q01DX009 (ip), vehicle: Klucel (hydroxypropylcellulose) (HPC)
[3] = dose: 400.0 mg/kg/injection, schedule: Q01DX009 (ip), vehicle: Klucel (hydroxypropylcellulose) (HPC)
[4] = dose: 100.0 mg/kg/injection, schedule: Q04DX003 (ip), vehicle: Klucel (hydroxypropylcellulose) (HPC)
[5] = dose: 200.0 mg/kg/injection, schedule: Q04DX003 (ip), vehicle: Klucel (hydroxypropylcellulose) (HPC)
[6] = dose: 400.0 mg/kg/injection, schedule: Q04DX003 (ip), vehicle: Klucel (hydroxypropylcellulose) (HPC)
[7] = dose: 100.0 mg/kg/injection, schedule: Q01DX009 (ip), vehicle: gum acacia
[8] = dose: 100.0 mg/kg/injection, schedule: Q01DX001 (ip), vehicle: Klucel (hydroxypropylcellulose) (HPC)
[9] = dose: 200.0 mg/kg/injection, schedule: Q01DX001 (ip), vehicle: Klucel (hydroxypropylcellulose) (HPC)
[10] = dose: 400.0 mg/kg/injection, schedule: Q01DX001 (ip), vehicle: Klucel (hydroxypropylcellulose) (HPC)
[11] = dose: 100.0 mg/kg/injection, schedule: Q04DX002 (ip), vehicle: Klucel (hydroxypropylcellulose) (HPC)
[12] = dose: 200.0 mg/kg/injection, schedule: Q04DX002 (ip), vehicle: Klucel (hydroxypropylcellulose) (HPC)
[13] = dose: 400.0 mg/kg/injection, schedule: Q04DX002 (ip), vehicle: Klucel (hydroxypropylcellulose) (HPC)
[14] = dose: 100.0 mg/kg/injection, schedule: Q01DX009 (ip), vehicle: saline with Tween-80
[15] = dose: 200.0 mg/kg/injection, schedule: Q01DX009 (ip), vehicle: saline with Tween-80
[16] = dose: 400.0 mg/kg/injection, schedule: Q01DX009 (ip), vehicle: saline with Tween-80
[17] = dose: 100.0 mg/kg/injection, schedule: Q01DX009 (ip), vehicle: saline

Measured: T/C

COc1cc([N+](=O)[O-])ccc1NC(=O)N(Cc1ccccc1)c1ccccc1
inactive: [1] 98 % of control | [2] 93 % of control | [3] 91 % of control

O=C(Sc1cccc(Br)c1)c1ccccc1
inactive: dose: 100.0 mg/kg/injection, schedule: Q01DX001 (ip), vehicle: other 100 % of control | dose: 200.0 mg/kg/injection, schedule: Q01DX001 (ip), vehicle: other 95 % of control | dose: 400.0 mg/kg/injection, schedule: Q01DX001 (ip), vehicle: other 94 % of control

COC1OC2COC(c3ccccc3)OC2C(O)C1NC(=O)c1ccccc1 (stereo not given)
inactive: [4] 110 % of control | [5] 94 % of control | [6] 111 % of control

Cc1cccc(SC(=O)Nc2cccc(Cl)c2C)c1
inactive: dose: 25.0 mg/kg/injection, schedule: Q01DX009 (ip), vehicle: gum acacia 100 % of control | dose: 50.0 mg/kg/injection, schedule: Q01DX009 (ip), vehicle: gum acacia 99 % of control | [7] 97 % of control and 89 % of control

Cc1cccc(Cl)c1NC(=O)C(C)C
inactive: dose: 100.0 mg/kg/injection, schedule: Q01DX009 (ip), vehicle: other 101 % of control | dose: 200.0 mg/kg/injection, schedule: Q01DX009 (ip), vehicle: other 104 % of control | dose: 400.0 mg/kg/injection, schedule: Q01DX009 (ip), vehicle: other 98 % of control

NC(N)=N/N=C(\c1ccc(F)cc1)C1CC1
inactive: dose: 15.0 mg/kg/injection, schedule: Q01DX Z (ip), vehicle: methylcellulose (MC) 94 % of control | dose: 15.0 mg/kg/injection, schedule: Q01DX Z (oral), vehicle: methylcellulose (MC) 110 % of control | dose: 30.0 mg/kg/injection, schedule: Q01DX Z (ip), vehicle: methylcellulose (MC) 95 % of control | dose: 30.0 mg/kg/injection, schedule: Q01DX Z (oral), vehicle: methylcellulose (MC) 105 % of control | dose: 60.0 mg/kg/injection, schedule: Q01DX Z (oral), vehicle: methylcellulose (MC) 96 % of control | dose: 120.0 mg/kg/injection, schedule: Q01DX Z (oral), vehicle: methylcellulose (MC) 104 % of control

CCOC(=O)C(=CNc1cccc(N)n1)C(=O)OCC
inactive: [4] 95 % of control | [5] 97 % of control | [6] 92 % of control

C=CCOc1nc(SC)ncc1C(=O)O
inactive: [8] 97 % of control | [9] 97 % of control | [10] 91 % of control

COc1cc([N+](=O)[O-])ccc1NC(=O)OCC(Cl)(Cl)Cl
inactive: [8] 98 % of control | [1] 93 % of control and 92 % of control | [11] 95 % of control and 102 % of control | [4] 99 % of control | [9] 100 % of control | [2] 103 % of control and 92 % of control | [12] 98 % of control and 111 % of control | [5] 94 % of control | [10] 96 % of control | [3] 109 % of control and 88 % of control | [13] 95 % of control and 98 % of control | [6] 105 % of control

O=C(CCC(=O)c1ccc(Br)cc1)c1ccc(Br)cc1
inactive: dose: 50.0 mg/kg/injection, schedule: Q01DX001 (ip), vehicle: carboxymethylcellulose (CMC) 92 % of control | dose: 100.0 mg/kg/injection, schedule: Q01DX001 (ip), vehicle: carboxymethylcellulose (CMC) 97 % of control | dose: 200.0 mg/kg/injection, schedule: Q01DX001 (ip), vehicle: carboxymethylcellulose (CMC) 103 % of control | dose: 400.0 mg/kg/injection, schedule: Q01DX001 (ip), vehicle: carboxymethylcellulose (CMC) 90 % of control

O=C(N/N=C/c1ccc2c(c1)OCO2)c1ccncc1
inactive: [14] 102 % of control | [15] 94 % of control | [16] 104 % of control

Cc1nc(N)[nH]c(=O)c1CCCc1ccccc1
inactive: [7] 103 % of control | dose: 200.0 mg/kg/injection, schedule: Q01DX009 (ip), vehicle: gum acacia 94 % of control | dose: 400.0 mg/kg/injection, schedule: Q01DX009 (ip), vehicle: gum acacia 95 % of control

NC(N)=Nc1ncnc2nncnc12
inactive: dose: 9.5 mg/kg/injection, schedule: Q01DX001 (ip), vehicle: other 102 % of control | dose: 19.0 mg/kg/injection, schedule: Q01DX001 (ip), vehicle: other 102 % of control | dose: 38.0 mg/kg/injection, schedule: Q01DX001 (ip), vehicle: other 102 % of control

Cc1cc(C(=O)O)c(CN)c(=O)n1C
inactive: dose: 100.0 mg/kg/injection, schedule: Q04DX003 (ip), vehicle: water 102 % of control | dose: 200.0 mg/kg/injection, schedule: Q04DX003 (ip), vehicle: water 103 % of control | dose: 400.0 mg/kg/injection, schedule: Q04DX003 (ip), vehicle: water 102 % of control

CN1CC2(CCN(CC3COc4ccccc4O3)CC2)OC1=O (stereo not given)
inactive: dose: 50.0 mg/kg/injection, schedule: Q01DX001 (ip), vehicle: Klucel (hydroxypropylcellulose) (HPC) 93 % of control | [8] 103 % of control | [9] 117 % of control | [10] 107 % of control

O=C(/C=C/c1ccccc1)N1CCOCC1
inactive: dose: 50.0 mg/kg/injection, schedule: Q01DX009 (ip), vehicle: saline 95 % of control | dose: 100.0 mg/kg/injection, schedule: Q01DX001 (ip), vehicle: saline 97 % of control | [17] 97 % of control | dose: 200.0 mg/kg/injection, schedule: Q01DX001 (ip), vehicle: saline 95 % of control

O=[N+]([O-])c1ccc(-c2ccc(-c3ccccc3)cc2)cc1
inactive: dose: 100.0 mg/kg/injection, schedule: Q01DX001 (ip), vehicle: acetone 98 % of control | dose: 100.0 mg/kg/injection, schedule: Q04DX003 (ip), vehicle: acetone 91 % of control | dose: 200.0 mg/kg/injection, schedule: Q01DX001 (ip), vehicle: acetone 95 % of control | dose: 200.0 mg/kg/injection, schedule: Q04DX003 (ip), vehicle: acetone 86 % of control | dose: 400.0 mg/kg/injection, schedule: Q01DX001 (ip), vehicle: acetone 92 % of control | dose: 400.0 mg/kg/injection, schedule: Q04DX003 (ip), vehicle: acetone 89 % of control

Cc1cccc(Cl)c1NC(=O)Nc1onc(C)c1C
inactive: [1] 103 % of control | [2] 100 % of control | [3] 92 % of control

NCCCNc1ccccc1
inactive: [17] 92 % of control | dose: 200.0 mg/kg/injection, schedule: Q01DX009 (ip), vehicle: saline 98 % of control

CN(C)c1ccccc1CN1CCCN(Cc2ccccc2N(C)C)C1c1ccncc1
inactive: dose: 6.0 mg/kg/injection, schedule: Q12HX018 (ip), vehicle: other 96 % of control | dose: 12.0 mg/kg/injection, schedule: Q12HX018 (ip), vehicle: other 103 % of control | dose: 24.0 mg/kg/injection, schedule: Q12HX018 (ip), vehicle: other 101 % of control

Cc1ccc(C)c(NC(=O)Oc2ccc(Cl)c(C)c2)c1
inactive: [11] 102 % of control | [12] 105 % of control | [13] 108 % of control

Cc1ccc(C)c(CCO)c1
inactive: [14] 100 % of control | dose: 100.0 mg/kg/injection, schedule: Q04DX003 (ip), vehicle: saline with Tween-80 97 % of control | [15] 95 % of control | dose: 200.0 mg/kg/injection, schedule: Q04DX003 (ip), vehicle: saline with Tween-80 108 % of control | [16] 91 % of control
